From article PMC3375280 (PLoS ONE, 2012)
Several values for one entry are separate records, joined by “and”; a condition that tells them apart may be missing. Equal values may be shown once.

Legend:
AT1 receptor = conditions: Cys76 accessible; cited from earlier work
[1] = molecular target: T1, wild-type (WT) AT1 receptor (Rattus norvegicus, UniProt P25095); assay: inositol phosphate (IP) production in COS1 cells expressing WT AT1 receptor; conditions: 1 µM compound, vs basal IP production
T1 sequence (P25095 1-359): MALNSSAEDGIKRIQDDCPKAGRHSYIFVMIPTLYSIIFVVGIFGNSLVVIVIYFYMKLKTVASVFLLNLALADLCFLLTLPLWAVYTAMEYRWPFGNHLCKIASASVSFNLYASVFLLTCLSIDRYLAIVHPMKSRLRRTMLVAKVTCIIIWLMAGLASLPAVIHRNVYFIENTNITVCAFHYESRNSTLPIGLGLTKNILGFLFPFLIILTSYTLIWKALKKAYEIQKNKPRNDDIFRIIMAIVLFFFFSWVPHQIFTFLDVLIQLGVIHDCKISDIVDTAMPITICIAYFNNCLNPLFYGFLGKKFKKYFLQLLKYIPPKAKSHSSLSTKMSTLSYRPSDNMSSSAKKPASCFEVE
Experimental: The test compounds were added 1 h before the measurement of IP.
The WT and mutant AT1 receptors were transiently transfected into COS1 cells using Lipofectamine 2000 liposomal reagent (Roche Applied Science) according to the manufacturer’s instructions.
Cells expressing the WT and mutant AT1 receptors were incubated for 30 minutes at 22°C with or without the indicated concentrations of ARBs. The cells were washed-out once with the use of excess cold HBSS, and used in an IP production study. Total soluble IP was measured by the perchloric acid extraction method, as described previously [16].

[2] = molecular target: T2, AT1 wild-type (WT) receptor (Rattus norvegicus, UniProt P25095); assay: 125I-[Sar1,Ile8]AngII competition binding, wild-type receptor; conditions: WT; for Kd: COS1 cell membranes, 100 pM 125I-[Sar1,Ile8]AngII, 1 h 22°C, read-out: Binding affinity (Kd); for Kd ratio relative to olmesartan (in parentheses): compound Kd / olmesartan Kd
T2 construct: expressed in transfected cells; host or cells: COS1
T2 sequence (P25095 1-359): T1 sequence (P25095 1-359)
Experimental: The Kd and Bmax values of receptor binding were determined by ^125I-[Sar^1, Ile^8] […] Membranes expressing the WT or mutant AT1 receptors were incubated with 100 pM ^125I-[Sar^1, Ile^8] […] The binding reaction was terminated by filtering the incubation mixture through Whatman GF/C glass filters, and the residues were extensively washed further with binding buffer. The bound ligand fraction was determined from the counts per minute (cpm) remaining on the membrane. Binding kinetics values were determined as previously described.

Structure (SMILES) | % inhibition of 125I-[Sar1,Ile8]AngII binding by MTSEA+ reagent (AT1 receptor) | Pharmacological behaviour toward IP production (agonism / neutral antagonism / inverse agonism) [1] | Kd [2] | Kd ratio relative to olmesartan (in parentheses) [2]
CS(=O)(=O)SCCN [MTSEA^+, methanethiosulphonate ethyl-ammonium] | approximately 30% |  |  | 
CCCc1nc(C(C)(C)O)c(C(=O)O)n1Cc1ccc(-c2cc(Cc3ccc(O)cc3)ccc2-c2nnn[nH]2)cc1 [R781253] |  | inverse agonism | 21 ± 10 nM | 9.1 fold
CCCc1nc(C(C)(C)O)c(C(=O)O)n1Cc1ccc(-c2cc(Cc3ccc(OCOC)cc3)ccc2-c2nnn[nH]2)cc1 [R781254] |  | inverse agonism | 396 ± 80 nM | 172 fold
CCCc1nc(C(C)(C)O)c(C(=O)O)n1Cc1ccc(-c2cc(Cc3cccc(O)c3)ccc2-c2nnn[nH]2)cc1 [R791212] |  | neutral antagonism | 125 ± 26 nM | 
CCCc1nc(C(C)C)c(C(N)=O)n1Cc1ccc(-c2cc(Cc3ccc(O)cc3)ccc2-c2nnn[nH]2)cc1 [R795100] |  | agonism | 179 ± 84 nM | 
CCCc1nc(C(C)(C)O)c(C(N)=O)n1Cc1ccc(-c2cc(Cc3ccccc3)ccc2-c2nnn[nH]2)cc1 [R801832] |  | agonism | 276 ± 22 nM | 100 fold and 120 fold
